# Results published in US20050112573A1, “Method of detecting toxic substance” (priority 2001, published 2005).
# Tested on: yeast genes (level of expressed mRNA)
# Test: DNA chip analysis of expressed mRNA of yeast genes after 2 h culture with a toxic chemical substance
# Type: cell-based, Saccharomyces cerevisiae S288C
# Protocol: Yeast (Saccharomyces cerevtisiae S288C (α SUC2mal mel gap2 CUP1)) were cultured at 25° C. on YPD medium (yeast extract 1%, polypepton 2%, glucose 2%). One of toxic chemical substances was added to the cell at logarithmic growth phase, and the cell was further cultured for two hours. Cell was cultured without any chemical substance in the same condition, and was used as control. Concentrations of the chemical substances were defined to inhibit the growth of the yeast but not lead to death.
# After the completion of cultivation, the culture was centrifuged to collect the cells. To the cells, sodium acetate buffer (50 mM sodium acetate, 10 mM EDTA, 1% SDS) was added, and the mixture was shaken at 65° C. for five minutes, followed by returning to room temperature, and obtaining the supernatant, which procedure was repeated two times. To the supernatant, ½ amount of a solution of phenol/chloroform was added, and the mixture was centrifuged to give a supernatant, which was added with an equal amount of chloroform, and the mixture was centrifuged to give a supernatant. To the supernatant, an equal amount of isopropanol containing 0.3 M sodium acetate was added, and the mixture was allowed to stand at room temperature for 30 minutes, after which the mixture was centrifuged to give a sediment of the whole RNAs. Seventy % ethanol was added to the sediment, and the mixture was again centrifuged to give a sediment, which was then dried and dissolved in water. mRNA was isolated from the whole RNAs as followings. In view of the fact that a poly A chain is attached to the 3′ terminus of mRNA, a polynucleotide having a poly T structure which was immobilized on the surface of latex beads was used to trap the mRNA, and then the mRNA was washed and eluted with spine column (Oligotex-dT30<Super>mRNA Purification Kit, Takara). Reverse transcription of the mRNA was conducted with a reverse transcriptase (Super Script II Reverse Transcriptase; catalogue No. 18064-014, GibcoBRL) using fluorescence-labeled nucleotides to give cDNAs that were introduced with Cy3-dUTP or Cy5-dUTP during the reverse transcription.
# The labeled cDNAs were dissolved in TE buffer (10 mM Tris-HCl/1 mM EDTA, pH8.0), and the solution was dropped on the DNA chip containing the whole genes of yeast (DNA Chip Research Inc. Japan) so that the cDNAs were hybridized on the DNA chip at 65° C. for over 12 hours. The fluoresces intensity of the DNA chip was read with a scanner, and the ratio relative to the fluorescence intensity resulting from the absence of chemical substance was estimated as the following, which is shown in Tables 1 to 9: [formula]
# In the Tables, “Intensity” indicated in the rightmost column is a value of the level of expressed mRNA of each gene in control cells as divided by the average level of the expressions of the whole genes.
smiles,measurement,setting,value
"CCCCC[C@H](O)CC(=O)CCc1ccc(O)c(OC)c1 [(13), gingerol]",The level of expressed mRNA in the presence of chemical substance/absence: YML029W,gene YML029W,2.0
same,The level of expressed mRNA in the presence of chemical substance/absence: YML041C,gene YML041C,1.2
same,The level of expressed mRNA in the presence of chemical substance/absence: YML079W,gene YML079W,1.6
same,level of expressed mRNA in the presence of chemical substance/in its absence,gene YML110C,1.8
same,The level of expressed mRNA in the presence of chemical substance/absence: YML118W,gene YML118W,1.7
same,The level of expressed mRNA in the presence of chemical substance/absence: YMR068W,gene YMR068W,1.4
same,The level of expressed mRNA in the presence of chemical substance/absence: YMR071C,gene YMR071C,1.3
same,level of expressed mRNA in the presence of chemical substance/in its absence,gene YMR105C,3.3
same,The level of expressed mRNA in the presence of chemical substance/absence: YMR114C,gene YMR114C,1.1
same,The level of expressed mRNA in the presence of chemical substance/absence: YMR115W,gene YMR115W,1.3
same,The level of expressed mRNA in the presence of chemical substance/absence: YMR160W,gene YMR160W,1.6
same,level of expressed mRNA in the presence of chemical substance/in its absence,gene YMR189W,0.9
same,The level of expressed mRNA in the presence of chemical substance/absence: YMR258C,gene YMR258C,1.6
same,level of expressed mRNA in the presence of chemical substance/in its absence,gene YMR271C,3.6
same,level of expressed mRNA in the presence of chemical substance/in its absence,gene YMR272C,1.2
same,level of expressed mRNA in the presence of chemical substance/in its absence,gene YMR296C,0.9
same,level of expressed mRNA in the presence of chemical substance/in its absence,gene YNL012W,2.9
same,The level of expressed mRNA in the presence of chemical substance/absence: YNL026W,gene YNL026W,1.7
same,level of expressed mRNA in the presence of chemical substance/in its absence,gene YNL037C,1.9
same,level of expressed mRNA in the presence of chemical substance/in its absence,gene YNL045W,2.6
same,The level of expressed mRNA in the presence of chemical substance/absence: YNL058C,gene YNL058C,0.6
same,The level of expressed mRNA in the presence of chemical substance/absence: YNL063W,gene YNL063W,1.5
same,level of expressed mRNA in the presence of chemical substance/in its absence,gene YNL104C,2.1
same,level of expressed mRNA in the presence of chemical substance/in its absence,gene YNL106C,0.9
same,level of expressed mRNA in the presence of chemical substance/in its absence,gene YNL130C,1.9
same,level of expressed mRNA in the presence of chemical substance/in its absence,gene YNL169C,1.7
same,The level of expressed mRNA in the presence of chemical substance/absence: YNL176C,gene YNL176C,0.6
same,The level of expressed mRNA in the presence of chemical substance/absence: YNL181W,gene YNL181W,1.8
same,The level of expressed mRNA in the presence of chemical substance/absence: YNL191W,gene YNL191W,0.6
same,The level of expressed mRNA in the presence of chemical substance/absence: YNL194C,gene YNL194C,1.5
same,The level of expressed mRNA in the presence of chemical substance/absence: YNL200C,gene YNL200C,1.1
same,The level of expressed mRNA in the presence of chemical substance/absence: YNL212W,gene YNL212W,1.3
same,level of expressed mRNA in the presence of chemical substance/in its absence,gene YNL231C,2.9
same,The level of expressed mRNA in the presence of chemical substance/absence: YNL253W,gene YNL253W,1.1
same,The level of expressed mRNA in the presence of chemical substance/absence: YNL265C,gene YNL265C,2.0
same,The level of expressed mRNA in the presence of chemical substance/absence: YNL276C,gene YNL276C,1.5
same,level of expressed mRNA in the presence of chemical substance/in its absence,gene YNL322C,0.8
same,level of expressed mRNA in the presence of chemical substance/in its absence,gene YNR002C,2.1
same,level of expressed mRNA in the presence of chemical substance/in its absence,gene YNR019W,2.1
same,level of expressed mRNA in the presence of chemical substance/in its absence,gene YNR033W,3.8
same,The level of expressed mRNA in the presence of chemical substance/absence: YNR051C,gene YNR051C,2.1
same,level of expressed mRNA in the presence of chemical substance/in its absence,gene YNR059W,2.4
same,The level of expressed mRNA in the presence of chemical substance/absence: YOL026C,gene YOL026C,1.2
same,The level of expressed mRNA in the presence of chemical substance/absence: YOL030W,gene YOL030W,1.7
same,level of expressed mRNA in the presence of chemical substance/in its absence,gene YOL058W,1.2
same,level of expressed mRNA in the presence of chemical substance/in its absence,gene YOL126C,2.6
same,level of expressed mRNA in the presence of chemical substance/in its absence,gene YOL143C,1.2
same,level of expressed mRNA in the presence of chemical substance/in its absence,gene YOL153C,2.9
same,level of expressed mRNA in the presence of chemical substance/in its absence,gene YOL157C,1.4
same,The level of expressed mRNA in the presence of chemical substance/absence: YOR022C,gene YOR022C,1.7
same,The level of expressed mRNA in the presence of chemical substance/absence: YOR087W,gene YOR087W,1.2
same,The level of expressed mRNA in the presence of chemical substance/absence: YOR088W,gene YOR088W,0.4
same,level of expressed mRNA in the presence of chemical substance/in its absence,gene YOR099W,1.6
same,level of expressed mRNA in the presence of chemical substance/in its absence,gene YOR130C,2.1
same,level of expressed mRNA in the presence of chemical substance/in its absence,gene YOR136W,1.5
same,The level of expressed mRNA in the presence of chemical substance/absence: YOR138C,gene YOR138C,1.8
same,The level of expressed mRNA in the presence of chemical substance/absence: YOR253W,gene YOR253W,0.5
